Measured values taken from ChEMBL document CHEMBL3137381, “MMV Box Onchocerca lienalis screening set”.

What was measured:
Assay type in all cases: functional
Onchocerca lienalis [1] = assay: MMV: Percent motility assay at a compound concentration of 7.8e-7 M. Activity score legend: 3: Active, 2: Moderately active; 1: Inactive, 0: Toxic; settings: at 0.78 µM
Onchocerca lienalis [2] = assay: MMV: Percent motility assay at a compound concentration of 3.1e-6 M. Activity score legend: 3: Active, 2: Moderately active; 1: Inactive, 0: Toxic; settings: at 3.1 µM
Onchocerca lienalis [3] = assay: MMV: Percent motility assay at a compound concentration of 1.25e-5 M. Activity score legend: 3: Active, 2: Moderately active; 1: Inactive, 0: Toxic; settings: at 12.5 µM
Onchocerca lienalis [4] = assay: MMV: Percent motility assay at a compound concentration of 1.9e-7 M. Activity score legend: 3: Active, 2: Moderately active; 1: Inactive, 0: Toxic; settings: at 0.19 µM

Compound | Motility (Onchocerca lienalis [1]) [%] | Motility (Onchocerca lienalis [2]) [%] | Motility (Onchocerca lienalis [3]) [%] | Motility (Onchocerca lienalis [4]) [%]
Cc1cc(NC(=O)c2cccc(C(F)(F)F)c2)n(-c2nc(-c3ccc4c(c3)OCO4)cs2)n1 | 100 | 100 | 100 | 100
Cc1cccc(-n2ncc3c(O)nc(-n4nc(C)cc4NC(=O)c4cc5ccccc5o4)nc32)c1 | 100 | 100 | 0 | 100
Oc1ccccc1CN1CCC2(CCCN(Cc3ccccc3F)C2)C1 (stereo unspecified) | 100 | 100 | 100 | 100
COc1cccc(Nc2nc(NCCO)c3ccccc3n2)c1.Cl | 100 | 100 | 100 | 100
Cc1ccc(-c2cc(C(=O)Nc3ccc(S(=O)(=O)N4CCCCC4)cc3)[nH]n2)c(O)c1 | 100 | 100 | 100 | 100
COCCNCC(O)Cn1c2ccc(Cl)cc2c2cc(Cl)ccc21 (stereo unspecified) | 100 | 100 | 66.66 | 100
COc1ccc(N2CCN(C(CNC(=O)C3CCCCC3)c3ccc4c(c3)OCO4)CC2)cc1 (stereo unspecified) | 100 | 100 | 100 | 100
COc1cc2cc(C(=O)Nc3ccccc3)c(N)nc2cc1OC | 100 | 100 | 100 | 100
Cc1[nH]c(-c2ccc(F)cc2)cc1C(=O)NC1CCN(Cc2ccccc2)CC1 | 100 | 100 | 100 | 100
O=C(O)C(=O)O.Oc1ccccc1CN1CCN(C(c2ccccc2)c2ccccc2)CC1 | 100 | 100 | 100 | 100
O=C(NC1CCCC1)c1ccc(N2CCC(NCc3cccc(C(F)(F)F)c3)CC2)cc1 | 100 | 100 | 100 | 100
CCOc1cc(Br)c(C(C)NC(=O)c2cccc(OC)c2)cc1OCC (stereo unspecified) | 100 | 100 | 100 | 100
CCN(CC)CCn1c(=N)n(CC(O)c2ccc(Cl)c(Cl)c2)c2ccccc21.Cl (stereo unspecified) | 100 | 100 | 100 | 100
CCOc1cc(Cl)c(C(C)NC(=O)c2cccc(OC)c2)cc1OCC (stereo unspecified) | 100 | 100 | 100 | 100
Cc1ccc(Cl)cc1N1CCN(CCCNC(=O)C2CCN(c3nc4ccccc4[nH]3)CC2)CC1 | 100 | 100 | 100 | 100
Cc1ccc(CSCc2ccc(C(=O)NC3CC3)o2)cc1 | 100 | 100 | 100 | 100
CN1CCN(c2c3c(c(C#N)c4nc5ccccc5n24)CCC3)CC1 | 100 | 100 | 100 | 100
CC(=O)NCCc1nc2ccccc2n1Cc1ccc(C(C)C)cc1 | 100 | 100 | 100 | 100
COc1nc(Nc2ccc(C(C)C)cc2)nc(OC)n1 | 100 | 100 | 100 | 100
CCN(CC)CCNc1ncnc2c1[nH]c1ccc(Br)cc12 | 100 | 100 | 100 | 100

Compound | Motility (Onchocerca lienalis [1]) [%] | Motility (Onchocerca lienalis [2]) [%] | Motility (Onchocerca lienalis [3]) [%] | Motility (Onchocerca lienalis [4]) [%]
CCCC(c1nnnn1C1CCCCC1)N1CCN(C(=O)c2ccco2)CC1.Cl (stereo unspecified) | 100 | 100 | 100 | 100
CC(C)(C)C(=O)Nc1ccc(C(=O)Nc2cccc(-c3nc4ccccc4[nH]3)c2)cc1 | 100 | 100 | 100 | 100
COc1ccc(-c2nonc2NC(=O)c2cccc(C)c2)cc1OC | 100 | 100 | 100 | 100
COc1cccc(-c2nn(C)c3sc(C(=O)NCCN4CCN(c5ccccc5F)CC4)cc23)c1 | 100 | 100 | 100 | 100
O=C(Nc1ccc(N2CCN(Cc3ccccc3)CC2)cc1)c1cccs1.O=C(O)C(F)(F)F | 100 | 100 | 100 | 100
Cc1ccc(CN2CCC(C(=O)Nc3ccc(-c4cc5ccccc5[nH]4)cc3)CC2)o1 | 100 | 100 | 100 | 100
O=C(Nc1ccc(N2CCCCC2)c(Cl)c1)c1ccc(Br)o1 | 100 | 100 | 100 | 100
Cc1cc(C)c2nc(N3CCC(C(=O)NCCCN4CCC(N5CCCCC5)CC4)CC3)sc2c1 | 100 | 100 | 100 | 100
CC(C)(C)c1ccc(C(=O)Nc2nc3ccccc3s2)cc1 | 100 | 100 | 100 | 100
CC1CC(C)CN(C(=O)c2ccc(Cl)cc2Cl)C1 (stereo unspecified) | 100 | 100 | 100 | 100
COc1ccccc1CNC(=O)C1c2ccccc2C(=O)N(CC(C)C)C1c1cccs1 (stereo unspecified) | 100 | 100 | 100 | 100
COc1ccc(C2N(C)c3ccccc3N2C)cc1 | 100 | 100 | 100 | 100
CC(C)OCc1cc(CN2CCN(c3cccc(Cl)c3)CC2)c(O)c2ncccc12 | 100 | 100 | 0 | 100
O=C(Nc1ccc(F)c(Cl)c1)Nc1ccc(Cl)c(Cl)c1 | 100 | 100 | 0 | 100
Clc1ccc2[nH]c3c(NCCCN4CCOCC4)ncnc3c2c1 | 100 | 100 | 100 | 100
CCOc1c(Cl)cc(CNC(C)C(O)c2ccccc2)cc1OC (stereo unspecified) | 100 | 100 | 100 | 100
CCCN(CCC)CCCNC(=O)c1cc2c(-c3ccc(OC)c(OC)c3)nn(C)c2s1 | 100 | 100 | 100 | 100
O=C(NCC1Cc2cccc(-c3ccncc3)c2O1)c1csc2c1CCCC2 (stereo unspecified) | 100 | 100 | 100 | 100
C=CCc1c(C)nc2ccccc2c1O | 100 | 100 | 100 | 100
